Patent EP0412877A1, “Oral galenic form to improve bioavailability” (priority 1989, dated 1991)
Read-outs that look alike come from different tables or passages of the source.

Experiments:
[1] = Solubility in water (stated in words); settings: result in words
[2] = human, in vivo, 0 min
Description: (§1) Des comprimés selon l'exemple 3, dosés à 15, 20 et 25mg d'oxodipine, ont été administrés à 6 volontaires sains.

[3] = Plasma concentrations after single oral administration of oxodipine forms to 6 healthy subjects; settings: human, 20 mg
Description: as §1

[4] = human, in vivo
[5] = In vitro dissolution kinetics in distilled water and intestinal juice; format: physicochemical; settings: eau distillée and suc intestinal
[6] = Dissolution kinetics of dihydropyridines (figure 7); format: physicochemical; settings: Nifédipine à l'état brut, oxodipine à l'état de coprécipité, without PROSOBEL
Description: On peut en conclure que le PROSOBEL, de façon très inattendue pour l'homme de métier, ralentit la dissolution en milieu aqueux, et permet l'obtention de formes pharmaceutiques originales et nouvelles, de dihydropyridines à biodisponibilité contrôlée.

Structure (SMILES): CCOC(=O)C1=C(C)NC(C)=C(C(=O)OC)C1c1cccc2c1OCO2 (centres unmarked) [Poudre 20mg, 1,4-dihydro 4-(2′,3′-méthylènedioxyphényl) 3,5-pyridine dicarboxylatede méthyle et d'éthyle]
- solubilité dans l'eau [1]: faible
- Concentration [2]: 0,0 ng/ml
- concentration at 0.17 h [3]: 1.2 ng/mL
- concentration at 0.33 h [3]: 1.4 ng/mL
- concentration at 0.5 h [3]: 2.7 ng/mL
- concentration at 0.66 h [3]: 4.2 ng/mL
- concentration at 0.83 h [3]: 5 ng/mL
- concentration at 1 h [3]: 6 ng/mL
- concentration at 1.25 h [3]: 6.8 ng/mL
- concentration at 1.5 h [3]: 6.5 ng/mL
- concentration at 2 h [3]: 6.2 ng/mL
- concentration at 3 h [3]: 5.1 ng/mL
- concentration at 4 h [3]: 4 ng/mL
- concentration at 6 h [3]: 2.4 ng/mL
- concentration at 8 h [3]: 1.6 ng/mL
- concentration at 10 h [3]: 1.4 ng/mL
- concentration at 12 h [3]: 1.2 ng/mL
- concentration at 14 h [3]: 1 ng/mL
- concentration at 24 h [3]: 1.2 ng/mL
- % DE DOSE ENTRES DANS L'ORGANISME APRES ABSORPTION ET PASSAGE HEPATIQUE ([4]; 10.2 min): 2,5%
- % DE DOSE ENTRES DANS L'ORGANISME APRES ABSORPTION ET PASSAGE HEPATIQUE ([4]; 19.8 min): 1,6%
- % DE DOSE ENTRES DANS L'ORGANISME APRES ABSORPTION ET PASSAGE HEPATIQUE ([4]; 30 min): 4,5%
- % DE DOSE ENTRES DANS L'ORGANISME APRES ABSORPTION ET PASSAGE HEPATIQUE ([4]; 39.6 min): 6,6%
- % DE DOSE ENTRES DANS L'ORGANISME APRES ABSORPTION ET PASSAGE HEPATIQUE ([4]; 49.8 min): 7,0%
- % DE DOSE ENTRES DANS L'ORGANISME APRES ABSORPTION ET PASSAGE HEPATIQUE ([4]; 60 min): 9,3%
- % DE DOSE ENTRES DANS L'ORGANISME APRES ABSORPTION ET PASSAGE HEPATIQUE ([4]; 75 min): 11%
- % DE DOSE ENTRES DANS L'ORGANISME APRES ABSORPTION ET PASSAGE HEPATIQUE ([4]; 90 min): 11,4%
- % DE DOSE ENTRES DANS L'ORGANISME APRES ABSORPTION ET PASSAGE HEPATIQUE ([4]; 120 min): 14,0%
- % DE DOSE ENTRES DANS L'ORGANISME APRES ABSORPTION ET PASSAGE HEPATIQUE ([4]; 180 min): 16,6%
- % DE DOSE ENTRES DANS L'ORGANISME APRES ABSORPTION ET PASSAGE HEPATIQUE ([4]; 240 min): 18%
- % DE DOSE ENTRES DANS L'ORGANISME APRES ABSORPTION ET PASSAGE HEPATIQUE ([4]; 360 min): 19,8%
- % DE DOSE ENTRES DANS L'ORGANISME APRES ABSORPTION ET PASSAGE HEPATIQUE ([4]; 480 min): 21,2%
- % DE DOSE ENTRES DANS L'ORGANISME APRES ABSORPTION ET PASSAGE HEPATIQUE ([4]; 600 min): 22,6%
- % DE DOSE ENTRES DANS L'ORGANISME APRES ABSORPTION ET PASSAGE HEPATIQUE ([4]; 720 min): 23,8%
- biodisponibilité ([4]; 720 min): 31%
- BIODIOPONIBILITE RELATIVE PAR RAPPORT A LA SOLUTION ([4]; po): 31%
- cinétique de dissolution in vitro [5]: lente et limitée
- cinétiques de dissolution [6]: très rapides
